According to ChEMBL document CHEMBL2401728, “An unexpected Dimroth rearrangement leading to annelated thieno[3,2-d][1,2,3]triazolo[1,5-a]pyrimidines with potent antitumor activity” (Eur J Med Chem, 2013):

Columns and labels:
[1] = Cytotoxicity against human prostate cancer cells assessed as cellular growth at 10 uM after 48 hrs by SRB assay relative to control; assay type: functional, Cancer cell lines
[2] = system: SW-620; experiment: Cytotoxicity against human SW620 cells assessed as cellular growth at 0.01 uM after 48 hrs by SRB assay relative to control; assay type: functional
[3] = system: KM12; experiment: Cytotoxicity against human KM12 cells assessed as cellular growth at 0.01 uM after 48 hrs by SRB assay relative to control; assay type: functional
[4] = system: RPMI-8226; experiment: Cytotoxicity against human RPMI8226 cells assessed as cellular growth at 0.01 uM after 48 hrs by SRB assay relative to control; assay type: functional
[5] = system: CAKI-1; experiment: Cytotoxicity against human Caki1 cells assessed as cellular growth at 100 uM after 48 hrs by SRB assay relative to control; assay type: functional
[6] = system: RXF 393; experiment: Cytotoxicity against human RXF393 cells assessed as cellular growth at 100 uM after 48 hrs by SRB assay relative to control; assay type: functional
[7] = system: OVCAR-4; experiment: Cytotoxicity against human OVCAR4 cells assessed as cellular growth at 100 uM after 48 hrs by SRB assay relative to control; assay type: functional
[8] = system: HCC 2998; experiment: Cytotoxicity against human HCC2998 cells assessed as cellular growth at 100 uM after 48 hrs by SRB assay relative to control; assay type: functional
[9] = system: NCI-H226; experiment: Cytotoxicity against human NCI-H226 cells assessed as cellular growth at 100 uM after 48 hrs by SRB assay relative to control; assay type: functional
[10] = Cytotoxicity against human EKVX cells assessed as cellular growth at 100 uM after 48 hrs by SRB assay relative to control; assay type: functional
[11] = system: RPMI-8226; experiment: Cytotoxicity against human RPMI8226 cells assessed as cellular growth at 100 uM after 48 hrs by SRB assay relative to control; assay type: functional
[12] = Cytotoxicity against human EKVX cells assessed as cellular growth at 10 uM after 48 hrs by SRB assay relative to control; assay type: functional
[13] = system: BT-549; experiment: Cytotoxicity against human BT549 cells assessed as cellular growth at 100 uM after 48 hrs by SRB assay relative to control; assay type: functional
[14] = system: CAKI-1; experiment: Cytotoxicity against human Caki1 cells assessed as cellular growth at 1 uM after 48 hrs by SRB assay relative to control; assay type: functional
[15] = system: MDA-MB-435; experiment: Cytotoxicity against human MDA-MB-435 cells assessed as cellular growth at 1 uM after 48 hrs by SRB assay relative to control; assay type: functional
[16] = system: KM12; experiment: Cytotoxicity against human KM12 cells assessed as cellular growth at 1 uM after 48 hrs by SRB assay relative to control; assay type: functional
[17] = system: NCI-H322M; experiment: Cytotoxicity against human NCI-H322M cells assessed as cellular growth at 1 uM after 48 hrs by SRB assay relative to control; assay type: functional
[18] = system: UO-31; experiment: Cytotoxicity against human UO31 cells after 48 hrs by SRB assay; assay type: functional; conditions: UO-31, 48 h
[19] = system: 786-0; experiment: Cytotoxicity against human 786-0 cells after 48 hrs by SRB assay; assay type: functional; conditions: 786-0, 48 h
[20] = system: OVCAR-5; experiment: Cytotoxicity against human OVCAR5 cells after 48 hrs by SRB assay; assay type: functional; conditions: OVCAR-5, 48 h
[21] = system: SK-MEL-5; experiment: Cytotoxicity against human SK-MEL-5 cells after 48 hrs by SRB assay; assay type: functional; conditions: SK-MEL-5, 48 h
[22] = system: HCC 2998; experiment: Cytotoxicity against human HCC2998 cells after 48 hrs by SRB assay; assay type: functional; conditions: HCC 2998, 48 h
[23] = system: HL-60(TB); experiment: Cytotoxicity against human HL-60(TB) cells after 48 hrs by SRB assay; assay type: functional; conditions: HL-60, 48 h
[24] = system: SN12C; experiment: Cytotoxicity against human SN12C cells assessed as cellular growth at 0.1 uM after 48 hrs by SRB assay relative to control; assay type: functional
[25] = system: CAKI-1; experiment: Cytotoxicity against human Caki1 cells assessed as cellular growth at 0.1 uM after 48 hrs by SRB assay relative to control; assay type: functional
[26] = system: OVCAR-5; experiment: Cytotoxicity against human OVCAR5 cells assessed as cellular growth at 0.1 uM after 48 hrs by SRB assay relative to control; assay type: functional
[27] = system: Malme-3M; experiment: Cytotoxicity against human MALME-3M cells assessed as cellular growth at 0.1 uM after 48 hrs by SRB assay relative to control; assay type: functional
[28] = system: U-251; experiment: Cytotoxicity against human U251 cells assessed as cellular growth at 0.1 uM after 48 hrs by SRB assay relative to control; assay type: functional
[29] = system: SNB-19; experiment: Cytotoxicity against human SNB19 cells assessed as cellular growth at 0.1 uM after 48 hrs by SRB assay relative to control; assay type: functional
[30] = system: HCT-116; experiment: Cytotoxicity against human HCT116 cells assessed as cellular growth at 0.1 uM after 48 hrs by SRB assay relative to control; assay type: functional
[31] = system: COLO 205; experiment: Cytotoxicity against human COLO205 cells assessed as cellular growth at 0.1 uM after 48 hrs by SRB assay relative to control; assay type: functional
[32] = system: HOP-92; experiment: Cytotoxicity against human HOP92 cells assessed as cellular growth at 0.1 uM after 48 hrs by SRB assay relative to control; assay type: functional
[33] = system: MOLT-4; experiment: Cytotoxicity against human MOLT4 cells assessed as cellular growth at 0.1 uM after 48 hrs by SRB assay relative to control; assay type: functional
[34] = system: RXF 393; experiment: Cytotoxicity against human RXF393 cells assessed as cellular growth at 0.01 uM after 48 hrs by SRB assay relative to control; assay type: functional
[35] = system: CAKI-1; experiment: Cytotoxicity against human Caki1 cells assessed as cellular growth at 0.01 uM after 48 hrs by SRB assay relative to control; assay type: functional
[36] = system: PC-3; experiment: Cytotoxicity against human PC3 cells assessed as cellular growth at 1 uM after 48 hrs by SRB assay relative to control; assay type: functional
[37] = read-out: LC50 (the source's name)
[38] = read-out: pLC50 (the source's name) (converted)

## O=C(O)CCCn1c2c(sc3ccccc32)c(=O)n2nnc(-c3ccccc3)c12
[1]
  Activity: 92%

## CN1CCN(CCCn2c3c(sc4ncccc43)c(=O)n3nnc(-c4ccccc4)c23)CC1
[2]
  Activity: 96%
[3]
  Activity: 101%
[4]
  Activity: 110%
[5]
  Activity: -90%
[6]
  Activity: -83%
[7]
  Activity: -70%
[8]
  Activity: -76%
[9]
  Activity: -79%
[10]
  Activity: -80%
[11]
  Activity: -46%
[12]
  Activity: -43%
[13]
  Activity: -81%
[14]
  Activity: 85%
[15]
  Activity: 99%
[16]
  Activity: 91%
[17]
  Activity: 90%
[18]; read-out: GI50
  GI50: 1.03 µM
[18]; [37]
  CC50: 5.94 µM
[18]; read-out: TGI
  TGI: 2.47 µM
[18]; read-out: pGI50 (converted)
  GI50: 1.02 µM
[18]; [38]
  CC50: 5.89 µM
[18]; read-out: pTGI (converted)
  TGI: 2.45 µM
[19]; read-out: GI50
  GI50: 1.87 µM
[19]; [37]
  CC50: 6.56 µM
[19]; read-out: TGI
  TGI: 3.5 µM
[19]; read-out: pGI50 (converted)
  GI50: 1.86 µM
[19]; [38]
  CC50: 6.61 µM
[19]; read-out: pTGI (converted)
  TGI: 3.47 µM
[20]; read-out: GI50
  GI50: 2.69 µM
[20]; [37]
  CC50: > 100 µM
[20]; read-out: TGI
  TGI: 7.35 µM
[20]; read-out: pGI50 (converted)
  GI50: 2.69 µM
[20]; [38]
  CC50: > 100 µM
[20]; read-out: pTGI (converted)
  TGI: 7.41 µM
[21]; read-out: GI50
  GI50: 1.7 µM
[21]; [37]
  CC50: 5.81 µM
[21]; read-out: TGI
  TGI: 3.14 µM
[21]; read-out: pGI50 (converted)
  GI50: 1.7 µM
[21]; [38]
  CC50: 5.75 µM
[21]; read-out: pTGI (converted)
  TGI: 3.16 µM
[22]; read-out: GI50
  GI50: 1.88 µM
[22]; [37]
  CC50: 6.39 µM
[22]; read-out: TGI
  TGI: 3.47 µM
[22]; read-out: pGI50 (converted)
  GI50: 1.86 µM
[22]; [38]
  CC50: 6.46 µM
[22]; read-out: pTGI (converted)
  TGI: 3.47 µM
[23]; read-out: GI50
  GI50: 1.86 µM
[23]; [37]
  CC50: 9.05 µM
[23]; read-out: TGI
  TGI: 4.1 µM
[23]; read-out: pGI50 (converted)
  GI50: 1.86 µM
[23]; [38]
  CC50: 9.12 µM
[23]; read-out: pTGI (converted)
  TGI: 4.07 µM
[24]
  Activity: 88%
[25]
  Activity: 86%
[26]
  Activity: 102%
[27]
  Activity: 81%
[28]
  Activity: 100%
[29]
  Activity: 96%
[30]
  Activity: 96%
[31]
  Activity: 89%
[32]
  Activity: 92%
[33]
  Activity: 102%
[34]
  Activity: 100%
[35]
  Activity: 97%

## O=C(CCCn1c2c(sc3ccccc32)c(=O)n2nnc(-c3ccccc3)c12)NCCc1c[nH]cn1
[2]
  Activity: 63%
[3]
  Activity: 106%
[6]
  Activity: -61%
[7]
  Activity: -87%
[9]
  Activity: -72%
[10]
  Activity: -24%
[12]
  Activity: 6%
[13]
  Activity: -72%
[36]
  Activity: 33%
[15]
  Activity: 34%
[16]
  Activity: 39%
[17]
  Activity: 90%
[18]; read-out: GI50
  GI50: 1.3 µM
[18]; [37]
  CC50: 5.22 µM
[18]; read-out: TGI
  TGI: 2.61 µM
[18]; read-out: pGI50 (converted)
  GI50: 1.29 µM
[18]; [38]
  CC50: 5.25 µM
[18]; read-out: pTGI (converted)
  TGI: 2.63 µM
[19]; read-out: GI50
  GI50: 1.05 µM
[19]; [37]
  CC50: 5.34 µM
[19]; read-out: TGI
  TGI: 2.37 µM
[19]; read-out: pGI50 (converted)
  GI50: 1.05 µM
[19]; [38]
  CC50: 5.37 µM
[19]; read-out: pTGI (converted)
  TGI: 2.34 µM
[20]; read-out: GI50
  GI50: 0.0565 µM
[20]; [37]
  CC50: 4.06 µM
[20]; read-out: TGI
  TGI: 1.36 µM
[20]; read-out: pGI50 (converted)
  GI50: 0.0562 µM
[20]; [38]
  CC50: 4.07 µM
[20]; read-out: pTGI (converted)
  TGI: 1.35 µM
[21]; read-out: GI50
  GI50: 2.02 µM
[21]; [37]
  CC50: 33.2 µM
[21]; read-out: TGI
  TGI: 11 µM
[21]; read-out: pGI50 (converted)
  GI50: 2.04 µM
[21]; [38]
  CC50: 33.1 µM
[21]; read-out: pTGI (converted)
  TGI: 11 µM
[23]; read-out: GI50
  GI50: 0.0724 µM
[23]; [37]
  CC50: 22.7 µM
[23]; read-out: TGI
  TGI: 3.21 µM
[23]; read-out: pGI50 (converted)
  GI50: 0.0724 µM
[23]; [38]
  CC50: 22.9 µM
[23]; read-out: pTGI (converted)
  TGI: 3.24 µM
[24]
  Activity: 40%
[26]
  Activity: 36%
[27]
  Activity: 101%
[28]
  Activity: 54%
[29]
  Activity: 65%
[30]
  Activity: 4%
[31]
  Activity: 60%
[32]
  Activity: 95%
[34]
  Activity: 118%
